One may read the Ki as a dissociation constant, usually derived from enzyme kinetics or from competition with a known ligand.

Molecules are shown by their SMILES.

For assay [1], the target named is CDK2/Cyclin E1 (Homo sapiens (Human), UniProt P24941). The assay is described as follows: biochemical. The settings on record: CDK2_Ki (nM), phosphorylated CDK2/Cyclin E1, 150 μM ATP, Morrison tight-binding fit.
Experimental: The assay was initiated with the addition of ATP, following a fifteen minutes pre-incubation of enzyme and inhibitor at room temperature in the reaction mixture. The reaction was stopped after 45 minutes at room temperature by the addition of 50 μL of 80 mM EDTA, pH 7.5.
The target of assay [2] is CDK6/Cyclin D1 (Homo sapiens (Human), UniProt Q00534). The assay is described as follows: biochemical. The settings on record: CDK6_Ki (nM), non-phosphorylated CDK6/Cyclin D1, 2 mM ATP, Morrison fit.
CDK6/Cyclin D1, sequence (Q00534 whole entry): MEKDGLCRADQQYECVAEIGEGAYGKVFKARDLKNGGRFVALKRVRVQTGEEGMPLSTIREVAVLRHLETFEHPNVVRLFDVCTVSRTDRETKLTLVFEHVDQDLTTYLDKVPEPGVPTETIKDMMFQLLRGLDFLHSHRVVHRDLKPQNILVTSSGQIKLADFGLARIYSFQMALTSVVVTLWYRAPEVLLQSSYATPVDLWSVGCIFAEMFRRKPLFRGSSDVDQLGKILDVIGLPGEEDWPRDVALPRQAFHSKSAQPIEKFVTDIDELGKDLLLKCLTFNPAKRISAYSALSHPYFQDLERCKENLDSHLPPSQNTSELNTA
CDK6/Cyclin D1, sequence (P24385 whole entry partner): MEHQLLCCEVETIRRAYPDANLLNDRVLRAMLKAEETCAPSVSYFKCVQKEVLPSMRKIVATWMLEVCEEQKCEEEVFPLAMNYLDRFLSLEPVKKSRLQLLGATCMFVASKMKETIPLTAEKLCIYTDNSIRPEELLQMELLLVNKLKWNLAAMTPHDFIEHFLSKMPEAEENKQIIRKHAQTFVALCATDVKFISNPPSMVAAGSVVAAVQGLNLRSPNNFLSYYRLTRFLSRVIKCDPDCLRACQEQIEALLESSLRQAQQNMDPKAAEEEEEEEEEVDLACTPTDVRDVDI

Turning to `CS(=O)(=O)N1CCC(Nc2ncc3cc(Cl)c(=O)n([C@@H]4CC[C@@H](O)C4)c3n2)CC1` (single isomer, unassigned) [Example 170, (−)-6-chloro-8-[(1R*,3R*)-3-hydroxycyclopentyl]-2-{[1-(methylsulfonyl)piperidin-4-yl]amino}pyrido[2,3-d]pyrimidin-7(8H)-one], the Ki stood at 6.03 nM in assay [1] and 1.82 nM in assay [2].

For `CS(=O)(=O)N1CCC(Nc2ncc3cc(CC(F)F)c(=O)n([C@H]4CC[C@H](O)C4)c3n2)CC1` (single isomer, unassigned) [Example 171, (+)-6-(2,2-difluoroethyl)-8-[(1R*,3R*)-3-hydroxycyclopentyl]-2-{[1-(methylsulfonyl)piperidin-4-yl]amino}pyrido[2,3-d]pyrimidin-7(8H)-one], the inhibitory constant (Ki) in assay [1] worked out at 1.73 nM; in assay [2], 1.55 nM.

As to `CS(=O)(=O)N1CCC(Nc2ncc3cc(CC(F)F)c(=O)n([C@@H]4CC[C@@H](O)C4)c3n2)CC1` (single isomer, unassigned) [Example 172, (−)-6-(2,2-difluoroethyl)-8-[(1R*,3R*)-3-hydroxycyclopentyl]-2-{[1-(methylsulfonyl)piperidin-4-yl]amino}pyrido[2,3-d]pyrimidin-7(8H)-one], the inhibitory constant (Ki) is 4.38 nM in assay [1] and 2.08 nM in assay [2].

Take `CC(=O)c1c(C)c2cnc(NC3CCN(S(C)(=O)=O)CC3)nc2n([C@@H]2CCC[C@@]2(C)O)c1=O` (single isomer, unassigned) [Example 177, (−)-6-acetyl-8-[(1R*,2R*)-2-hydroxy-2-methylcyclopentyl]-5-methyl-2-{[1-(methylsulfonyl)piperidin-4-yl]amino}pyrido[2,3-d]pyrimidin-7(8H)-one]: the inhibition constant Ki came out at 1.22 nM in assay [1] and 0.14 nM in assay [2].

Turning to `C[C@@]1(O)CCC[C@H]1n1c(=O)c(CC(N)=O)cc2cnc(NC3CCN(S(C)(=O)=O)CC3)nc21` (single isomer, unassigned) [Example 179, (−)-2-(8-[(1R*,2R*)-2-hydroxy-2-methylcyclopentyl]-2-{[1-(methylsulfonyl)piperidin-4-yl]amino}-7-oxo-7,8-dihydropyrido[2,3-d]pyrimidin-6-yl)acetamide], the values for the inhibition constant (Ki) in assay [1] and in assay [2] were 0.38 nM and 2.18 nM, respectively.

Consider `C[C@]1(O)CCC[C@@H]1n1c(=O)c(CC(N)=O)cc2cnc(NC3CCN(S(C)(=O)=O)CC3)nc21` (single isomer, unassigned) [Example 180, (+)-2-(8-[(1R*,2R*)-2-hydroxy-2-methylcyclopentyl]-2-{[1-(methylsulfonyl)piperidin-4-yl]amino}-7-oxo-7,8-dihydropyrido[2,3-d]pyrimidin-6-yl)acetamide], for which the inhibition constant (Ki) in assay [1] was 3.76 nM; in assay [2] it was 28.9 nM.

For the compound `Cc1cc2cnc(NC3CCN(S(=O)(=O)C(F)(F)F)CC3)nc2n([C@@H]2CCC[C@@]2(C)O)c1=O` (single isomer, unassigned) [Example 181, (−)-8-[(1R*,2R*)-2-hydroxy-2-methylcyclopentyl]-6-methyl-2-({1-[(trifluoromethyl)sulfonyl]piperidin-4-yl}amino)pyrido[2,3-d]pyrimidin-7(8H)-one], the inhibition constant (Ki) worked out at 1.32 nM in assay [1] and 0.85 nM in assay [2].

Turning to `Cc1cc2cnc(NC3CCN(S(=O)(=O)C(F)(F)F)CC3)nc2n([C@H]2CCC[C@]2(C)O)c1=O` (single isomer, unassigned) [Example 182, (+)-8-[(1R*,2R*)-2-hydroxy-2-methylcyclopentyl]-6-methyl-2-({1-[(trifluoromethyl)sulfonyl]piperidin-4-yl}amino)pyrido[2,3-d]pyrimidin-7(8H)-one], the Ki in assay [1] turned out to be 12.6 nM; in assay [2] it was 9.5 nM.

Regarding `C[C@@]1(O)CCC[C@H]1n1c(=O)ccc2cnc(NC3CCN(S(N)(=O)=O)CC3)nc21` (single isomer, unassigned) [Example 183, (−)-4-({8-[(1R*,2R*)-2-hydroxy-2-methylcyclopentyl]-7-oxo-7,8-dihydropyrido[2,3-d]pyrimidin-2-yl}amino)piperidine-1-sulfonamide], the Ki was determined as 0.1 nM in assay [1] and 1.99 nM in assay [2].

Consider `C[C@]1(O)CCC[C@@H]1n1c(=O)ccc2cnc(NC3CCN(S(N)(=O)=O)CC3)nc21` (single isomer, unassigned) [Example 184, (+)-4-({8-[(1R*,2R*)-2-hydroxy-2-methylcyclopentyl]-7-oxo-7,8-dihydropyrido[2,3-d]pyrimidin-2-yl}amino)piperidine-1-sulfonamide], for which the Ki in assay [1] amounted to 1.46 nM; in assay [2], 11.8 nM.

For `C[C@@]1(O)CCC[C@H]1n1c(=O)c(CO)cc2cnc(NC3CCN(S(C)(=O)=O)CC3)nc21` (single isomer, unassigned) [Example 185, (−)-6-(hydroxymethyl)-8-[(1R*,2R*)-2-hydroxy-2-methylcyclopentyl]-2-{[1-(methylsulfonyl)piperidin-4-yl]amino}pyrido[2,3-d]pyrimidin-7(8H)-one], the figures for the Ki in assay [1] and in assay [2] were 0.43 nM and 0.38 nM, respectively.

Turning to `C[C@]1(O)CCC[C@@H]1n1c(=O)c(CO)cc2cnc(NC3CCN(S(C)(=O)=O)CC3)nc21` (single isomer, unassigned) [Example 186, (+)-6-(hydroxymethyl)-8-[(1R*,2R*)-2-hydroxy-2-methylcyclopentyl]-2-{[1-(methylsulfonyl)piperidin-4-yl]amino}pyrido[2,3-d]pyrimidin-7(8H)-one], the results for the inhibition constant (Ki) in assay [1] and in assay [2] were 5.65 nM and 3.62 nM, respectively.

Take `C[C@@]1(O)CCC[C@H]1n1c(=O)c(C(F)F)cc2cnc(NC3CCN(S(N)(=O)=O)CC3)nc21` (single isomer, unassigned) [Example 187, (−)-4-({6-(difluoromethyl)-8-[(1R*,2R*)-2-hydroxy-2-methylcyclopentyl]-7-oxo-7,8-dihydropyrido[2,3-d]pyrimidin-2-yl}amino)piperidine-1-sulfonamide]: the Ki came to 0.08 nM in assay [1] and 0.29 nM in assay [2].

With `C[C@]1(O)CCC[C@@H]1n1c(=O)c(C(F)F)cc2cnc(NC3CCN(S(N)(=O)=O)CC3)nc21` (single isomer, unassigned) [Example 188, (+)-4-({6-(difluoromethyl)-8-[(1R*,2R*)-2-hydroxy-2-methylcyclopentyl]-7-oxo-7,8-dihydropyrido[2,3-d]pyrimidin-2-yl}amino)piperidine-1-sulfonamide], the inhibition constant (Ki) in assay [1] was 0.7 nM; in assay [2] it was 2.4 nM.

As to `C[C@@]1(O)CCC[C@H]1n1c(=O)c(Cl)cc2cnc(N[C@H]3CCN(S(C)(=O)=O)C[C@H]3F)nc21` (single isomer, unassigned) [Example 191, (−)-6-chloro-2-{[(3R*,4S*)-3-fluoro-1-(methylsulfonyl)piperidin-4-yl]amino}-8-[(1R,2R)-2-hydroxy-2-methylcyclopentyl]pyrido[2,3-d]pyrimidin-7(8H)-one], the Ki in assay [1] amounted to 0.4 nM; in assay [2], 0.58 nM.

Take `C[C@@]1(O)CCC[C@H]1n1c(=O)c(Cl)cc2cnc(N[C@@H]3CCN(S(C)(=O)=O)C[C@@H]3F)nc21` (single isomer, unassigned) [Example 192, (+)-6-chloro-2-{[(3R*,4S*)-3-fluoro-1-(methylsulfonyl)piperidin-4-yl]amino}-8-[(1R,2R)-2-hydroxy-2-methylcyclopentyl]pyrido[2,3-d]pyrimidin-7(8H)-one]: the results for the Ki in assay [1] and in assay [2] were 20.9 nM and 10.1 nM, respectively.

Consider `CC[C@@]1(O)CCC[C@H]1n1c(=O)ccc2cnc(NC3CCN(S(C)(=O)=O)CC3)nc21` (single isomer, unassigned) [Example 193, (−)-(8-[(1R*,2R*)-2-ethyl-2-hydroxycyclopentyl]-2-{[1-(methylsulfonyl)piperidin-4-yl]amino}pyrido[2,3-d]pyrimidin-7(8H)-one], for which the inhibitory constant (Ki) in assay [1] worked out at 2.55 nM; in assay [2] it was 2.27 nM.

`CC[C@]1(O)CCC[C@@H]1n1c(=O)ccc2cnc(NC3CCN(S(C)(=O)=O)CC3)nc21` (single isomer, unassigned) [Example 194, (+)-(8-[(1R*,2R*)-2-ethyl-2-hydroxycyclopentyl]-2-{[1-(methylsulfonyl)piperidin-4-yl]amino}pyrido[2,3-d]pyrimidin-7(8H)-one]: the inhibition constant (Ki) was 4.01 nM in assay [1] and 5.37 nM in assay [2].

`CC[C@@]1(O)CCC[C@H]1n1c(=O)c(Cl)cc2cnc(NC3CCN(S(C)(=O)=O)CC3)nc21` (single isomer, unassigned) [Example 195, (−)-6-chloro-8-[(1R*,2R*)-2-ethyl-2-hydroxycyclopentyl]-2-{[1-(methylsulfonyl)piperidin-4-yl]amino}pyrido[2,3-d]pyrimidin-7(8H)-one]: the inhibition constant (Ki) in assay [1] amounted to 5.49 nM; in assay [2], 4.68 nM.

On to `CC[C@]1(O)CCC[C@@H]1n1c(=O)c(Cl)cc2cnc(NC3CCN(S(C)(=O)=O)CC3)nc21` (single isomer, unassigned) [Example 196, (+)-6-chloro-8-[(1R*,2R*)-2-ethyl-2-hydroxycyclopentyl]-2-{[1-(methylsulfonyl)piperidin-4-yl]amino}pyrido[2,3-d]pyrimidin-7(8H)-one], for which the Ki in assay [1] came to 5.72 nM; in assay [2], 3.84 nM.

In the case of `Cc1cc2cnc(NC3CCN(S(C)(=O)=O)CC3)nc2n([C@@H]2COC[C@@]2(C)O)c1=O` (single isomer, unassigned) [Example 197, (−)-8-[(3R*,4S*)-4-hydroxy-4-methyltetrahydrofuran-3-yl]-6-methyl-2-{[1-(methylsulfonyl)piperidin-4-yl]amino}pyrido[2,3-d]pyrimidin-7(8H)-one], the Ki was found to be 4.26 nM in assay [1] and 4.78 nM in assay [2].

Regarding `Cc1cc2cnc(NC3CCN(S(C)(=O)=O)CC3)nc2n([C@H]2COC[C@]2(C)O)c1=O` (single isomer, unassigned) [Example 198, (+)-8-[(3R*,4S*)-4-hydroxy-4-methyltetrahydrofuran-3-yl]-6-methyl-2-{[1-(methylsulfonyl)piperidin-4-yl]amino}pyrido[2,3-d]pyrimidin-7(8H)-one], the inhibition constant Ki in assay [1] was determined as 26.9 nM; in assay [2], 31 nM.

These data come from patent US10233188B2, “CDK2/4/6 inhibitors” (priority 2016, dated 2019).
